{
  "source": "paper PMC10707724",
  "about": "“Dual Effects of 3-epi-betulin from Daphniphyllum glaucescens in Suppressing SARS-CoV-2-Induced Inflammation and Inhibiting Virus Entry” (International Journal of Molecular Sciences, 2023)",
  "key": {"[1]": {"tested_on": "SARS-CoV-2 virus spike binding to ACE2", "details": "by computational screening; cited from earlier work"}, "[2]": {"tested_on": "pro-inflammatory genes (IL1B, IL6) in differentiated THP-1 cells", "format": "cell-based"}, "SARS-CoV-2 replicon": {"tested_on": "SARS-CoV-2 replicon", "experiment": "microbe, parasite or virus in culture", "format": "cell-based", "details": "Severe acute respiratory syndrome coronavirus 2, HEK-293T, read-out: EC50, replication of SARS-CoV-2 replicon (luciferase activity)"}, "[3]": {"tested_on": "pro-inflammatory genes, IL6 and TNF, in Calu-3 cells", "format": "cell-based"}, "[4]": {"tested_on": "SARS-CoV-2 (hCoV-19/Taiwan/NTU49/2020)", "format": "cell-based", "details": "Calu-3, 10 μM for 24 h after infection"}, "[5]": {"tested_on": "SARS-CoV-2 (hCoV-19/Taiwan/NTU49/2020)", "experiment": "microbe, parasite or virus in culture", "format": "cell-based"}, "[6]": {"tested_on": "wild-type SARS-CoV-2 pseudovirus SEMpv", "experiment": "microbe, parasite or virus in culture", "format": "cell-based", "details": "Severe acute respiratory syndrome-related coronavirus, BHK-ACE2, 48 h, read-out: EC50, pseudovirus entry"}, "[7]": {"tested_on": "wild-type SARS-CoV-2 pseudovirus Spv", "experiment": "microbe, parasite or virus in culture", "format": "cell-based", "details": "Severe acute respiratory syndrome-related coronavirus, BHK-ACE2, 48 h, read-out: EC50, pseudovirus entry"}, "VSV-pseudovirus (Gpv)": {"tested_on": "VSV-pseudovirus (Gpv)", "format": "cell-based"}, "[8]": {"tested_on": "SARS-CoV-2 Alpha (B.1.1.7)", "experiment": "microbe, parasite or virus in culture", "format": "cell-based", "details": "Severe acute respiratory syndrome coronavirus 2, Vero C1008, Alpha (B.1.1.7)"}, "[9]": {"tested_on": "SARS-CoV-2 Eplison (B.1.429)", "experiment": "microbe, parasite or virus in culture", "format": "cell-based", "details": "Severe acute respiratory syndrome coronavirus 2, Vero C1008, Eplison (B.1.429)"}, "SARS-CoV-2 Gamma (P1)": {"tested_on": "SARS-CoV-2 Gamma (P1)", "experiment": "microbe, parasite or virus in culture", "format": "cell-based", "details": "Severe acute respiratory syndrome coronavirus 2, Vero C1008, Gamma (P1)"}, "[10]": {"tested_on": "SARS-CoV-2 Delta (B.1.617.2)", "experiment": "microbe, parasite or virus in culture", "format": "cell-based", "details": "Severe acute respiratory syndrome coronavirus 2, Vero C1008, Delta (B.1.617.2)"}, "[11]": {"tested_on": "SARS-CoV-2 Omicron (BA.1)", "experiment": "microbe, parasite or virus in culture", "format": "cell-based", "details": "Severe acute respiratory syndrome coronavirus 2, Vero C1008"}, "SARS-CoV-2 pseudoviruses": {"tested_on": "SARS-CoV-2 pseudoviruses", "format": "cell-based", "details": "pseudovirus pre-treated with compound 37 °C 1 h, BHK-ACE2 48 h, luciferase"}, "BHK-ACE2 cells": {"tested_on": "BHK-ACE2 cells", "details": "BHK-ACE2, 48 h, MTS"}, "spike protein": {"tested_on": "spike protein", "details": "cited from earlier work"}, "[12]": {"details": "compound given after pseudovirus infection, 16 h (time-of-addition study)"}},
  "data": [
    {"smiles": "C=C(C)[C@@H]1CC[C@]2(C(=O)O)CC[C@]3(C)[C@H](CC[C@@H]4[C@@]5(C)CC[C@H](O)C(C)(C)[C@@H]5CC[C@]43C)[C@@H]12", "note": "[Betulinic acid]", "values": [
      {"measurement": "inhibition of spike binding to ACE2 through the RBD domain", "setting": "[1]", "result": "inhibit SARS-CoV-2 virus spike binding to ACE2"}
    ]},
    {"smiles": "C=C(C)[C@@H]1CC[C@]2(CO)CC[C@]3(C)[C@H](CC[C@@H]4[C@@]5(C)CC[C@@H](O)C(C)(C)[C@@H]5CC[C@]43C)[C@@H]12", "note": "[Compound 5, 3-epi-Betulin]", "values": [
      {"measurement": "decrease in IL1B expression", "setting": "[2]; [12]", "result": 69.5, "unit": "%"},
      {"measurement": "decrease in IL6 expression", "setting": "[2]; [12]", "result": 82.9, "unit": "%"},
      {"measurement": "expression of pro-inflammatory genes, pre-inoculation", "setting": "[2]; compound mixed with pseudovirus 1 h before infecting differentiated THP-1 cells", "result": "remained unchanged"},
      {"measurement": "expression of pro-inflammatory genes, pre-treatment", "setting": "[2]; compound on differentiated THP-1 cells 1 h before pseudovirus infection", "result": "remained unchanged"},
      {"measurement": "IL1B RNA level decrease", "setting": "[2]; differentiated THP-1 infected with SEMpv, then compound for 16 h", "result": 47.3, "unit": "%"},
      {"measurement": "EC50", "setting": "SARS-CoV-2 replicon", "result": "11.7 ± 0.4", "unit": "µM"},
      {"measurement": "IL6 expression decrease", "setting": "[3]", "result": 66.6, "unit": "%"},
      {"measurement": "TNF expression decrease", "setting": "[3]", "result": 46.0, "unit": "%"},
      {"measurement": "minus-stranded viral RNA decrease", "setting": "[4]", "result": 51.7, "unit": "%"},
      {"measurement": "plus-stranded viral RNA reduction", "setting": "[4]", "result": 73.8, "unit": "%"},
      {"measurement": "culture supernatant viral load decrease", "setting": "[4]; RT-qPCR", "result": 61.4, "unit": "%"},
      {"measurement": "plaque formation decline", "setting": "[4]; plaque assay of supernatant", "result": 51.5, "unit": "%"},
      {"measurement": "EC50", "setting": "[5]; Severe acute respiratory syndrome coronavirus 2, Calu-3 lung epithelial cells, read-out: EC50, SARS-CoV-2 infection", "result": "< 20", "unit": "µM"},
      {"measurement": "intracellular viral RNA decrease", "setting": "[5]; virus pre-incubated with 20 μM, Calu-3, 24 h", "result": 45.6, "unit": "%"},
      {"measurement": "infectious virus titer decrease", "setting": "[5]; virus pre-incubated with 20 μM, Calu-3, 24 h, plaque assay", "result": 66.3, "unit": "%"},
      {"measurement": "EC50", "setting": "[6]", "result": 14.6, "unit": "µM"},
      {"measurement": "EC50", "setting": "[7]", "result": 16.3, "unit": "µM"},
      {"measurement": "inhibitory activity against control VSV-pseudovirus", "setting": "VSV-pseudovirus (Gpv)", "result": "no inhibitory activity"},
      {"measurement": "EC50", "setting": "[8]", "result": 10.3, "unit": "µM"},
      {"measurement": "EC50", "setting": "[9]", "result": 12.9, "unit": "µM"},
      {"measurement": "EC50", "setting": "SARS-CoV-2 Gamma (P1)", "result": 3.27, "unit": "µM"},
      {"measurement": "EC50", "setting": "[10]", "result": 3.09, "unit": "µM"},
      {"measurement": "EC50", "setting": "[11]", "result": "14.5 ± 3.9", "unit": "µM"},
      {"measurement": "inhibitory activity for virus entry", "setting": "SARS-CoV-2 pseudoviruses", "result": "highest inhibitory activity"},
      {"measurement": "cytotoxicity", "setting": "BHK-ACE2 cells", "result": "no cytotoxicity"}
    ]},
    {"smiles": "C=C(C)[C@@H]1CC[C@]2(CO)CC[C@]3(C)[C@H](CC[C@@H]4[C@@]5(C)CC[C@H](O)C(C)(C)[C@@H]5CC[C@]43C)[C@@H]12", "note": "[Compound 7, Betulin]", "values": [
      {"measurement": "ability to bind to the spike protein", "setting": "spike protein", "result": "ability to bind to the spike protein"}
    ]}
  ]
}
